{"source": "patent US20130164384A1", "about": "“METHODS OF TREATING BOWEL DISEASES BY ADMINISTERING A BOWEL CLEANSER AND AN ANTIBIOTIC” (Salix Pharmaceuticals, Ltd., priority 2008, published 2013)", "system": "subjects with dIBS", "test": "Study of three rifaximin doses in subjects with dIBS: adequate relief of IBS symptoms and bloating", "type": "in vivo, human", "details": "for Adequate Relief of Bloating: Success / Adequate Relief of IBS Symptoms: Failure / Adequate Relief of IBS Symptoms: Success / Adequate Relief of Bloating: Failure: end of treatment phase", "description": "This example relates to a study of three rifaximin doses in subjects with dIBS. Subjects were randomized to receive daily BID doses of rifaximin 275 mg, 550 mg, or 1100 mg for 14 days. A fifth group of subjects received rifaximin 550 mg BID for a period of 28 days. Subjects were questioned on the relief of overall IBS symptoms and bloating. […] The analyses defined success as a “yes” response to questions regarding adequate relief of SGA or IBS-B in at least 2 out of the final 3 weeks of the double-blind treatment period.\nBaseline severity was determined using 7-point Lickert scales during screening for Abdominal Pain/Discomfort and Bloating, and the number, type (normal, hard, loose) and urgency of bowel movements.\nDuration of effect was assessed in a 12 week follow-up period. Subjects that responded in the 4 week double-blind treatment period were followed for an additional 3 months. Fifty-three (53) subjects from the 550 mg 2 w and 59 subjects from the placebo-treated groups participated in this study phase.\nSubjects recorded the following information on dIBS symptoms daily throughout the duration of the study: • Number of normal stools/day; • Number of hard and lumpy stools/day; • Number of loose or watery stools/day; • Number of loose or watery stools/day with the symptom of urgency; • How bothersome is abdominal pain and discomfort? [7-point response scale: 0 (not at all) to 6 (a very great deal)]; • How bothersome is bloating? [(7-point response scale: 0 (not at all) to 6 (a very great deal)].\nWeekly summary variables were computed by averaging the recorded values over all pre-treatment days or over the seven days preceding the time point of interest for post-treatment assessments. For example, baseline included Days −10 to 0, Week 1 included Days 1 to 7, Week 2 included Days 8 to 14, and so forth through Week 16. Changes from baseline variables were computed for each weekly summary score.", "key": {"[1]": {"details": "RFX 550 2 w (550 mg BID 14 days), had screening colonoscopy, Average Bloating Discomfort Score at Baseline >4"}, "[2]": {"details": "RFX 550 4 w (550 mg BID 28 days), Had a Screening Colonoscopy: No"}, "[3]": {"details": "RFX 550 4 w (550 mg BID 28 days), Had a Screening Colonoscopy: Yes"}, "[4]": {"details": "RFX 550 4 w (550 mg BID 28 days), Screening Colonoscopy <=26 Days"}, "[5]": {"details": "RFX 550 4 w (550 mg BID 28 days), Screening Colonoscopy >26 Days"}, "[6]": {"details": "RFX 550 4 w (550 mg BID 28 days), had screening colonoscopy, Average Abdominal Pain Discomfort Score at Baseline <=4"}, "[7]": {"details": "RFX 550 4 w (550 mg BID 28 days), had screening colonoscopy, Average Abdominal Pain Discomfort Score at Baseline >4"}, "[8]": {"details": "RFX 550 4 w (550 mg BID 28 days), had screening colonoscopy, Average Bloating Discomfort Score at Baseline <=4"}, "[9]": {"details": "RFX 550 4 w (550 mg BID 28 days), had screening colonoscopy, Average Bloating Discomfort Score at Baseline >4"}, "[10]": {"details": "RFX 1100 2 w (1100 mg BID 14 days), Had a Screening Colonoscopy: No"}, "[11]": {"details": "RFX 1100 2 w (1100 mg BID 14 days), Had a Screening Colonoscopy: Yes"}, "[12]": {"details": "RFX 1100 2 w (1100 mg BID 14 days), Screening Colonoscopy <=26 Days"}, "[13]": {"details": "RFX 1100 2 w (1100 mg BID 14 days), Screening Colonoscopy >26 Days"}, "[14]": {"details": "RFX 1100 2 w (1100 mg BID 14 days), had screening colonoscopy, Average Abdominal Pain Discomfort Score at Baseline <=4"}, "[15]": {"details": "RFX 1100 2 w (1100 mg BID 14 days), had screening colonoscopy, Average Abdominal Pain Discomfort Score at Baseline >4"}, "[16]": {"details": "RFX 1100 2 w (1100 mg BID 14 days), had screening colonoscopy, Average Bloating Discomfort Score at Baseline <=4"}, "[17]": {"details": "RFX 1100 2 w (1100 mg BID 14 days), had screening colonoscopy, Average Bloating Discomfort Score at Baseline >4"}}, "data": [{"smiles": "COC1/C=C/OC2(C)Oc3c(C)c(O)c4c(O)c(c5c(nc6cc(C)ccn65)c4c3C2=O)NC(=O)/C(C)=C\\C=C\\C(C)C(O)C(C)C(O)C(C)C(OC(C)=O)C1C", "note": "[RFX, (2S,16Z,18E,20S,21S,22R,23R,24R,25S,26S,27S,28E)-5,6,21,23,25 Pentahydroxy-27-methoxy-2,4,11,16,20,22,24,26-octamethyl-2,7-(epoxypentadeca-(1,11,13)trienimino)benzofuro(4,5-e)pyrido(1,2,-a)benzimidazole-1,15(2H)-dione,25-acetate]", "values": [{"measurement": "Adequate Relief of Bloating: Success", "setting": "[1]", "result": "8 (50.0%) n (%)"}, {"measurement": "Adequate Relief of IBS Symptoms: Failure", "setting": "[1]", "result": "8 (50.0%) n (%)"}, {"measurement": "Adequate Relief of IBS Symptoms: Success", "setting": "[1]", "result": "8 (50.0%) n (%)"}, {"measurement": "Adequate Relief of Bloating: Failure", "setting": "[2]", "result": "37 (64.9%) n (%)"}, {"measurement": "Adequate Relief of Bloating: Success", "setting": "[2]", "result": "20 (35.1%) n (%)"}, {"measurement": "Adequate Relief of IBS Symptoms: Failure", "setting": "[2]", "result": "35 (61.4%) n (%)"}, {"measurement": "Adequate Relief of IBS Symptoms: Success", "setting": "[2]", "result": "22 (38.6%) n (%)"}, {"measurement": "Adequate Relief of Bloating: Failure", "setting": "[3]", "result": "23 (56.1%) n (%)"}, {"measurement": "Adequate Relief of Bloating: Success", "setting": "[3]", "result": "18 (43.9%) n (%)"}, {"measurement": "Adequate Relief of IBS Symptoms: Failure", "setting": "[3]", "result": "22 (53.7%) n (%)"}, {"measurement": "Adequate Relief of IBS Symptoms: Success", "setting": "[3]", "result": "19 (46.3%) n (%)"}, {"measurement": "Adequate Relief of Bloating: Failure", "setting": "[4]", "result": "12 (48.0%) n (%)"}, {"measurement": "Adequate Relief of Bloating: Success", "setting": "[4]", "result": "13 (52.0%) n (%)"}, {"measurement": "Adequate Relief of IBS Symptoms: Failure", "setting": "[4]", "result": "11 (44.0%) n (%)"}, {"measurement": "Adequate Relief of IBS Symptoms: Success", "setting": "[4]", "result": "14 (56.0%) n (%)"}, {"measurement": "Adequate Relief of Bloating: Failure", "setting": "[5]", "result": "11 (68.8%) n (%)"}, {"measurement": "Adequate Relief of Bloating: Success", "setting": "[5]", "result": "5 (31.3%) n (%)"}, {"measurement": "Adequate Relief of IBS Symptoms: Failure", "setting": "[5]", "result": "11 (68.8%) n (%)"}, {"measurement": "Adequate Relief of IBS Symptoms: Success", "setting": "[5]", "result": "5 (31.3%) n (%)"}, {"measurement": "Adequate Relief of Bloating: Failure", "setting": "[6]", "result": "19 (59.4%) n (%)"}, {"measurement": "Adequate Relief of Bloating: Success", "setting": "[6]", "result": "13 (40.6%) n (%)"}, {"measurement": "Adequate Relief of IBS Symptoms: Failure", "setting": "[6]", "result": "19 (59.4%) n (%)"}, {"measurement": "Adequate Relief of IBS Symptoms: Success", "setting": "[6]", "result": "13 (40.6%) n (%)"}, {"measurement": "Adequate Relief of Bloating: Failure", "setting": "[7]", "result": "4 (44.4%) n (%)"}, {"measurement": "Adequate Relief of Bloating: Success", "setting": "[7]", "result": "5 (55.6%) n (%)"}, {"measurement": "Adequate Relief of IBS Symptoms: Failure", "setting": "[7]", "result": "3 (33.3%) n (%)"}, {"measurement": "Adequate Relief of IBS Symptoms: Success", "setting": "[7]", "result": "6 (66.7%) n (%)"}, {"measurement": "Adequate Relief of Bloating: Failure", "setting": "[8]", "result": "15 (57.7%) n (%)"}, {"measurement": "Adequate Relief of Bloating: Success", "setting": "[8]", "result": "11 (42.3%) n (%)"}, {"measurement": "Adequate Relief of IBS Symptoms: Failure", "setting": "[8]", "result": "15 (57.7%) n (%)"}, {"measurement": "Adequate Relief of IBS Symptoms: Success", "setting": "[8]", "result": "11 (42.3%) n (%)"}, {"measurement": "Adequate Relief of Bloating: Failure", "setting": "[9]", "result": "8 (53.3%) n (%)"}, {"measurement": "Adequate Relief of Bloating: Success", "setting": "[9]", "result": "7 (46.7%) n (%)"}, {"measurement": "Adequate Relief of IBS Symptoms: Failure", "setting": "[9]", "result": "7 (46.7%) n (%)"}, {"measurement": "Adequate Relief of IBS Symptoms: Success", "setting": "[9]", "result": "8 (53.3%) n (%)"}, {"measurement": "Adequate Relief of Bloating: Failure", "setting": "[10]", "result": "30 (66.7%) n (%)"}, {"measurement": "Adequate Relief of Bloating: Success", "setting": "[10]", "result": "15 (33.3%) n (%)"}, {"measurement": "Adequate Relief of IBS Symptoms: Failure", "setting": "[10]", "result": "27 (60.0%) n (%)"}, {"measurement": "Adequate Relief of IBS Symptoms: Success", "setting": "[10]", "result": "18 (40.0%) n (%)"}, {"measurement": "Adequate Relief of Bloating: Failure", "setting": "[11]", "result": "31 (57.4%) n (%)"}, {"measurement": "Adequate Relief of Bloating: Success", "setting": "[11]", "result": "23 (42.6%) n (%)"}, {"measurement": "Adequate Relief of IBS Symptoms: Failure", "setting": "[11]", "result": "31 (57.4%) n (%)"}, {"measurement": "Adequate Relief of IBS Symptoms: Success", "setting": "[11]", "result": "23 (42.6%) n (%)"}, {"measurement": "Adequate Relief of Bloating: Failure", "setting": "[12]", "result": "20 (55.6%) n (%)"}, {"measurement": "Adequate Relief of Bloating: Success", "setting": "[12]", "result": "16 (44.4%) n (%)"}, {"measurement": "Adequate Relief of IBS Symptoms: Failure", "setting": "[12]", "result": "19 (52.8%) n (%)"}, {"measurement": "Adequate Relief of IBS Symptoms: Success", "setting": "[12]", "result": "17 (47.2%) n (%)"}, {"measurement": "Adequate Relief of Bloating: Failure", "setting": "[13]", "result": "11 (61.1%) n (%)"}, {"measurement": "Adequate Relief of Bloating: Success", "setting": "[13]", "result": "7 (38.9%) n (%)"}, {"measurement": "Adequate Relief of IBS Symptoms: Failure", "setting": "[13]", "result": "12 (66.7%) n (%)"}, {"measurement": "Adequate Relief of IBS Symptoms: Success", "setting": "[13]", "result": "6 (33.3%) n (%)"}, {"measurement": "Adequate Relief of Bloating: Failure", "setting": "[14]", "result": "22 (50.0%) n (%)"}, {"measurement": "Adequate Relief of Bloating: Success", "setting": "[14]", "result": "22 (50.0%) n (%)"}, {"measurement": "Adequate Relief of IBS Symptoms: Failure", "setting": "[14]", "result": "23 (52.3%) n (%)"}, {"measurement": "Adequate Relief of IBS Symptoms: Success", "setting": "[14]", "result": "21 (47.7%) n (%)"}, {"measurement": "Adequate Relief of Bloating: Failure", "setting": "[15]", "result": "9 (90.0%) n (%)"}, {"measurement": "Adequate Relief of Bloating: Success", "setting": "[15]", "result": "1 (10.0%) n (%)"}, {"measurement": "Adequate Relief of IBS Symptoms: Failure", "setting": "[15]", "result": "8 (80.0%) n (%)"}, {"measurement": "Adequate Relief of IBS Symptoms: Success", "setting": "[15]", "result": "2 (20.0%) n (%)"}, {"measurement": "Adequate Relief of Bloating: Failure", "setting": "[16]", "result": "21 (47.7%) n (%)"}, {"measurement": "Adequate Relief of Bloating: Success", "setting": "[16]", "result": "23 (52.3%) n (%)"}, {"measurement": "Adequate Relief of IBS Symptoms: Failure", "setting": "[16]", "result": "21 (47.7%) n (%)"}, {"measurement": "Adequate Relief of IBS Symptoms: Success", "setting": "[16]", "result": "23 (52.3%) n (%)"}, {"measurement": "Adequate Relief of Bloating: Failure", "setting": "[17]", "result": "10 (100.0%) n (%)"}, {"measurement": "Adequate Relief of Bloating: Success", "setting": "[17]", "result": "0 n (%)"}, {"measurement": "Adequate Relief of IBS Symptoms: Failure", "setting": "[17]", "result": "10 (100.0%) n (%)"}, {"measurement": "Adequate Relief of IBS Symptoms: Success", "setting": "[17]", "result": "0 n (%)"}, {"measurement": "Likelihood of treatment effect with a purgative prior to rifaximin versus no cleanser", "setting": "purgative prior to treatment", "result": "much more likely to have a treatment effect"}, {"measurement": "Rate of success in relief of symptoms with screening colonoscopy (GI cleanser) prior to rifaximin", "setting": "subjects who had a screening colonoscopy", "result": "higher rate of success in relief of symptoms"}]}]}
